According to patent US6022699A, “Myeloperoxidase assay of endotoxin-induced inflammation” (Alcon Laboratories, Inc., priority 1999, dated 2000):
Entries after “also recorded” stand apart in the source; their conditions may differ.

Tests used:
[1] = target: T1, Human sputum myeloperoxidase (HSMPO) (Homo sapiens, UniProt P05164); assay: Spectrophotometric (460 nm) assay of MPO-catalyzed oxidation of o-DA; assay type: biochemical
T1 construct: mature light and heavy chains from one precursor
T1 sequence (P05164 165-745): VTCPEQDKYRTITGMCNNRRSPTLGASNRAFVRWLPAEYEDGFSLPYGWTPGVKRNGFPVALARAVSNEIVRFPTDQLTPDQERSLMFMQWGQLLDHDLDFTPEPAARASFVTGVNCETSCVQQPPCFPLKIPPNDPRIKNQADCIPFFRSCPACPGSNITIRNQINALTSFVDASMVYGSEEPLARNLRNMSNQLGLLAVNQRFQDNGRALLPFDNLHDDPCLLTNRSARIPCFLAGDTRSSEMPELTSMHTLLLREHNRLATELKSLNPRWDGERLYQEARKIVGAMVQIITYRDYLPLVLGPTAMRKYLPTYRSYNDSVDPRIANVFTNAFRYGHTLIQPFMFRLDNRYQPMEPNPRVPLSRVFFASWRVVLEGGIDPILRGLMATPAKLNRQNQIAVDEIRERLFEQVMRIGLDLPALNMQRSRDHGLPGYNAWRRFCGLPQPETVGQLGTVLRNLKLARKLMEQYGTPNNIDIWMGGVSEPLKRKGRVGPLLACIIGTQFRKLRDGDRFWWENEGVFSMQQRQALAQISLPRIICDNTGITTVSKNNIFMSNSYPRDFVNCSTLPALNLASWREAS
Method: N-ethylmaleimide (NEM), o-DA (3,3'-dimethoxybenzidine dihydrochloride), HTA-Br, LPS (lipopolysaccharide, E. coli 0111:B4), heparin, dexamethasone,histopaque 1083 and histopaque 1119 were obtained from Sigma Chemical Company, St. Louis, Mo. Dextran-100 was a product of Crescent Chemical Company, Hauppauge, N.Y. Hydrogen peroxide (30%) was obtained from J. T. Baker and stored at 4° C. All other chemicals used were of the highest purity available. Human sputum myeloperoxidase (HSMPO) was obtained from Elastin Products Co., Pacific, Mo. The enzyme (2.4 mg solid) was dissolved in 2.4 mL of 50 mM potassium phosphate buffer (pH 6.0), and stored in 0.1 mL aliquots at -20° C., then diluted 10-fold with 50 mM potassium phosphate buffer (pH 6.0) to provide a HSMPO concentration of 0.1 mg/mL.
To evaluate potential assay interference by ASC, conditions were selected which permitted the spectrophotometric assessment of ASC effects on the extent of o-DA oxidation. This was accomplished using sub-saturating concentrations of H2 O2 (37 mM), 1.5 mM o-DA a nd excess enzyme. MPO activity was assayed at room temperature in a final volume of 3.0 mL containing 50 mM potassium phosphate buffer (pH 6.0), 37 mM H2 O2, and 1.5 mM o-DA. Reactions were initiated by addition of 2 mg HSMPO: (a) control reaction, (b) ASC (3.2 mM) added 3.6 minutes after initiation of the reaction, (c) ASC (32 mM) added just prior to the initiation of the reaction and (d) ASC (64 mM) added just prior to the initiation of the reaction.
The effect of GSH on o-DA oxidation by HSMPO was assessed in an analogous fashion. MPO activity was assayed at room temperature in 3.0 mL of 50 mM potassium phosphate (pH 6.0), supplemented with 37 mM H2 O2, and 1.5 mM o-DA. (a) HSMPO (2 mg) was added 2 minutes after addition of NEM (6.6 mM) and GSH (1.65 mM), (b) NEM (6.6 mM) was added 5 minutes prior to addition of HSMPO (2 mg) (c) GSH (3.3 mM) was added 3.5 minutes after initiation of the reaction by addition of HSMPO (2 mg), (d) GSH (0.33 mM) was added just prior to initiation of the reaction with HSMPO (2 mg) with NEM (6.6 mM) added 20 seconds following initiation of the reaction, (e) GSH (0.33 mM) was added just prior to initiation of the reaction with HSMPO (2 mg) with NEM (6.6 mM) added 1.0 minute following initiation of the reaction, and (f) GSH (1.65 mM) was added just prior to initiation of the reaction.

[2] = system: PMN infiltrates within the different compartments of the eye; assay: Histopathologic evaluation of PMN infiltrates in eye sections; assay type: in vivo, Lewis rat; conditions: topical dexamethasone-treated animals
Method: Inhibition of PMN influx into ocular tissue of the Lewis rat by dexamethasone was evaluated as follows. Dexamethasone suspensions were prepared in a carbopol ophthalmic suspension vehicle at concentrations of 0.0033%, 0.01%, 0.033%, 0.04% and 0.10%, w/v. A 5 μL aliquot of test drug or vehicle was applied topically to each eye of the experimental animals 24, 20, and 4 hours prior to, at the time of, and 4 and 20 hours after LPS foot pad injection. Twenty-four (24) hours following LPS administration, eyes were enucleated, quickly frozen on dry ice and stored at -70° C. until used for tissue extraction and assessment of MPO activity. Alternatively, eyes were enucleated and fixed in a solution of phosphate buffered (40 mM) formalin (4%), pH 6.0. Eyes were embedded in paraffin and sectioned. Using light microscopy, hematoxylin- and eosin-stained sections were examined for the presence and distribution of PMN infiltrates within the different compartments of the eye. Infiltrates were ranked subjectively on a scale ranging from 0 to 5, where 0=not remarkable, 1=minimal, 2=slight/mild, 3=moderate, 4=moderately severe, and 5=severe/high.

O=C1O[C@H]([C@@H](O)CO)C(O)=C1O [ASC, ascorbic acid]
effect on the 460 nm absorbance attained ([1]; ASC 3.2 mM added to control reaction when enzyme catalysis had ceased): little effect
development of absorbance at 460 nm ([1]; ASC 64 mM added just prior to initiation): fully abolished
interference in the spectrophotometric assay of MPO, ASC compared with GSH ([1]; concentration dependent): more effective than GSH

N[C@@H](CCC(=O)N[C@@H](CS)C(=O)NCC(=O)O)C(=O)O [GSH, glutathione]
increase in 460 nm absorbancy ([1]; GSH 1.65 mM present at the initiation of the MPO reaction): fully prevented
change in absorbancy ([1]; GSH 3.3 mM added to control peroxidase reactions that had ceased): little change in absorbancy

CCN1C(=O)C=CC1=O [NEM, N-ethylmaleimide]
inhibitory effect of GSH ([1]; NEM 6.6 mM added together with GSH 1.65 mM 2 minutes prior to addition of enzyme): fully abolished
effect on MPO activity ([1]; NEM alone (6.6 mM), absence of GSH): does not affect MPO catalysis; also recorded: little effect on MPO activity

C[C@@H]1C[C@H]2[C@@H]3CCC4=CC(=O)C=C[C@]4(C)[C@@]3(F)[C@@H](O)C[C@]2(C)[C@@]1(O)C(=O)CO [dexamethasone]
PMNs in anterior and posterior compartments and associated ocular tissue (histopathology) [2]: dose dependent decline in PMNs
